Experimental data: ChEMBL document CHEMBL1201862, “PubChem BioAssay data set” (2004)
Active and inactive are the calls of the source.

Legend:
[1] = molecular target: Beta-galactosidase (Escherichia coli, UniProt Q8VNN2); assay: Dose response counterscreen for EBI2 assay utilizing the enzyme, b-galactosidase.; assay type: functional
[2] = HEK293T cytotoxicity, dose response, cytotoxicity control for miR-122 modulator project, cell-based, activator set, cherry-pick (AID 720690); assay type: functional;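 further: HEK293T human cells scored for general mammalian cytotoxicity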
[3] = miR-122 activators in hepatoma reporter cells, dose response, cell-based, Huh7 psiCHECK-miR122, Renilla luciferase, cherry-picked (AID 651956); assay type: functional;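 further: huh7 hepatoma cells stably carrying a psiCHECK-2 miR-122 sensor plasmid; renilla luciferase signal reporting endogenous miR-122 activity after 48 h compound exposure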
[4] = HepG2 cell cytotoxicity, dose response, cytotoxicity control, ATP luminescence, cherry-pick, activator set 2 (AID 1053143); assay type: functional, cell-based
[5] = tested on: A549; assay: A549 cell toxicity, dose response, cytotoxicity control, plate reader, cherry-pick samples (AID 687028); assay type: functional, cell-based; details: Homo sapiens
[6] = tested on: Vero; assay: Vero cell toxicity, dose response, cytotoxicity control, plate reader, cherry-pick samples (AID 687020); assay type: functional, cell-based; details: Chlorocebus sabaeus
[7] = molecular target: T1, Methionyl-tRNA synthetase, putative (Trypanosoma brucei brucei, UniProt Q38C91); assay type: functional, Trypanosoma brucei brucei strain 927/4 GUTat10.1
T1 sequence (Q38C91 whole entry): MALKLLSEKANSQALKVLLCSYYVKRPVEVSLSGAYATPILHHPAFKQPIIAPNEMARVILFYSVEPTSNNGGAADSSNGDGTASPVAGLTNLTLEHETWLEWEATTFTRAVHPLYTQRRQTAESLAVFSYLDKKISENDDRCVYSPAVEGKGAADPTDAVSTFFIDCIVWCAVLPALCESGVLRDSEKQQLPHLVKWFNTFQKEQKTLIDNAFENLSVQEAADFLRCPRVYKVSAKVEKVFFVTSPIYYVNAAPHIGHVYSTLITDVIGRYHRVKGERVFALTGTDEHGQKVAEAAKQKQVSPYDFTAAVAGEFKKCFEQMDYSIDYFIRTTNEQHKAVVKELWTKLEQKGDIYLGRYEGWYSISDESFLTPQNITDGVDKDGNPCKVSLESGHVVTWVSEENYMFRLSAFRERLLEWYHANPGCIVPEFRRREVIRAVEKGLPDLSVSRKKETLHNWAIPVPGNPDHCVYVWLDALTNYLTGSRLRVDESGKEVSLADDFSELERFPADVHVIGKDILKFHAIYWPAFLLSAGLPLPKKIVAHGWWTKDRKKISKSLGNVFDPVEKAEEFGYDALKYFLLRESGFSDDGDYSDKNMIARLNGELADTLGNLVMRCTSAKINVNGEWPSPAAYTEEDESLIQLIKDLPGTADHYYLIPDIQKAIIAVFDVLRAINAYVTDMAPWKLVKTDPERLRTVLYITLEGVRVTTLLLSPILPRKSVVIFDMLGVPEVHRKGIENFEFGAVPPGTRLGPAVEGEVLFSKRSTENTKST

[8] = Counterscreen for inhibitors of Trypanosoma brucei methionyl tRNA synthetase (MetRS): Luminescence-based cell-based high throughput dose response assay to identify compounds that are cytotoxic to Jurkat human T lymphocyte cells.; assay type: functional
[9] = molecular target: T1, Methionyl-tRNA synthetase, putative; assay type: functional, Trypanosoma brucei brucei strain 927/4 GUTat10.1; remark: listed apart in the source
[10] = inhibitors of HIV Env-driven cell fusion, dose response, cherry-pick (AID 652057); assay type: functional, cell-based
[11] = CEM21 lymphoblast cell cytotoxicity, dose response, cytotoxicity control for viral fusion inhibitor project, CellTiter-Glo luminescence, cherry-picked (AID 652042); assay type: functional, cell-based;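 further: potency for signal decrease meaning cytotoxicity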
[12] = ZM109 Env clade C HIV-1 fusion inhibitors, dose response, HeLa effector, CEM target cells, luciferase, cherry-pick (AID 652058); assay type: functional, cell-based
[13] = off-target signal loss in HeLa-CEM21 co-culture – HeLa F-luc CTL cells, cherry-picked, counter-screen for HIV-1 Env fusion inhibitor project, dose response (AID 652040); assay type: functional, cell-based;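 further: potency for signal decrease marking cytotoxic or nonspecific inhibition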
[14] = inhibitors of clade B AD8 Env fusion, dose response, cell-based, cherry-pick (AID 652062); assay type: functional;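 further: luciferase signal from cell-cell fusion driven by HIV-1 clade B AD8 Env; potency is for inhibitors of fusion seen as a drop in luminescence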
[15] = non-specific cell cytotoxicity, dose response, cytotoxicity control for PAX8 inhibitor project, plate reader, dry powder samples (AID 743021); assay type: functional, cell-based
[16] = HEK293 cell cytotoxicity, dose response, cytotoxicity control, plate reader, cherry-picked samples (AID 743446); assay type: functional, cell-based
[17] = LGR2 antagonists, dose response, cell-based, HEK293, CRE-luciferase reporter, cherry pick, set 2 (AID 743343); assay type: functional;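 further: transfected cells were stimulated with diluted bursicon conditioned medium after compound addition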
[18] = MC4R antagonists, dose response, counter-screen for LGR2 antagonist project, cell-based, plate reader, cherry pick (AID 743444); assay type: functional;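 further: transfected HEK 293 cells stimulated with alpha-MSH peptide; potency of inhibitors of the alpha-MSH evoked signal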
[19] = A549 cell cytotoxicity, dose response, cytotoxicity control, plate reader, cherry-pick, antagonist series (AID 743412); assay type: functional, cell-based
[20] = molecular target: Paired box protein Pax-8 (Homo sapiens, UniProt Q06710); assay: inhibitors of PAX8-driven TPO luciferase reporter, dose response, RMG-I cells, cherry-pick (AID 687027); assay type: functional, cell-based;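 further: luciferase reporter driven by Pax8 target thyroperoxidase promoter measured by SteadyGlo luminescence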
Chain of Paired box protein Pax-8 (Q06710 whole entry): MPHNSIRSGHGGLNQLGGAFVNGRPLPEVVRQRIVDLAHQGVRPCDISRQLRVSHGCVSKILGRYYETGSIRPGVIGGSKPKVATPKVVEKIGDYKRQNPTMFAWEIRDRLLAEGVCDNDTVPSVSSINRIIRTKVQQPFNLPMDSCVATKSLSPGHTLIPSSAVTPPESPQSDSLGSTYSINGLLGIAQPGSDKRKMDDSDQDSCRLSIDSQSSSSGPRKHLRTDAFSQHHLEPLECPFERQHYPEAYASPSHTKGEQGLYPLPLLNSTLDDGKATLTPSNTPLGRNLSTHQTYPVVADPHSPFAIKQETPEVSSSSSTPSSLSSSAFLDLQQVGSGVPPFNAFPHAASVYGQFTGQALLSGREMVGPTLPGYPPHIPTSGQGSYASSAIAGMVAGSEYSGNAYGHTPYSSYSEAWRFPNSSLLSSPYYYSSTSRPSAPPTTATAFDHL

[21] = HepG2 cell cytotoxicity, dose response, cytotoxicity control, plate reader, cherry-pick, antagonist series (AID 743416); assay type: functional, cell-based
[22] = cells; assay type: functional, cell-based
[23] = molecular target: Nuclear receptor subfamily 0 group B member 1 (Homo sapiens, UniProt P51843); assay type: functional, cell-based;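 further: HEK293T cells transfected with SF-1 and DAX-1 plus StAR promoter luciferase reporter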
Chain of Nuclear receptor subfamily 0 group B member 1 (P51843 whole entry): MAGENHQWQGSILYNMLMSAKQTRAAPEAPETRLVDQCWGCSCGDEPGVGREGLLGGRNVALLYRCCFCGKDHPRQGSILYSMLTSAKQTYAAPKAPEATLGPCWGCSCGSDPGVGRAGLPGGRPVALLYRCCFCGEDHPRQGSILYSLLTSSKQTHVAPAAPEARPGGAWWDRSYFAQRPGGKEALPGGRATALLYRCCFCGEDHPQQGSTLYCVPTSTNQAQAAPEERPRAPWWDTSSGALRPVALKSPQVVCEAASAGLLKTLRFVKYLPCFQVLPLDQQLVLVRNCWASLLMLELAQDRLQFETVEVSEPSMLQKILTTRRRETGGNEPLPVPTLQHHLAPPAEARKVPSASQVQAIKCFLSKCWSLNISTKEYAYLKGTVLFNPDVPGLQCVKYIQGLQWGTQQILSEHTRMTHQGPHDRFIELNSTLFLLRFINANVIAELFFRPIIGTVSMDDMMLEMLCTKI

[24] = molecular target: T2, Rac GTPase-activating protein 1 (Homo sapiens, UniProt Q9H0H5); assay: MgcRacGAP GTPase-activating activity inhibitors, confirmation, biochemical, ADP Hunter fluorescence, primary and confirmatory (AID 624330); assay type: functional
T2 sequence (Q9H0H5 whole entry): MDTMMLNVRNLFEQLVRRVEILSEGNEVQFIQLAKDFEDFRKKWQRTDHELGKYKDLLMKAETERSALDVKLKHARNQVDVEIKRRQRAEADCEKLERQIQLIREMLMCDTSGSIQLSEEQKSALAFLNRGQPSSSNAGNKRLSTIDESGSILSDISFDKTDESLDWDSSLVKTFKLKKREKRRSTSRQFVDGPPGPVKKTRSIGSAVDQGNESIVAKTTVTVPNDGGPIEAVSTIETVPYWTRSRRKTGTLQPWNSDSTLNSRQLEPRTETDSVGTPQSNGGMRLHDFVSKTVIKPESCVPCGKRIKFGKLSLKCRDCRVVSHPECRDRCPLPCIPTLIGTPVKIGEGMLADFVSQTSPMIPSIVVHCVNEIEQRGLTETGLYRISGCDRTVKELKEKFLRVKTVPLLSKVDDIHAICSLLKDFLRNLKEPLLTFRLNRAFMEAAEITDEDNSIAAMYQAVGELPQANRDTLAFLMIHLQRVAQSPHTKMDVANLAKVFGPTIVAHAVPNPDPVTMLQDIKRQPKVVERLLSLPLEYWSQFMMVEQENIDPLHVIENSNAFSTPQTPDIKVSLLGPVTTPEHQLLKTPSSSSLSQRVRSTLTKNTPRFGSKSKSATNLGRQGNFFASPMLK

[25] = HeLa cell cytotoxicity, dose response, cytotoxicity control for MgcRacGAP inhibitor project (AID 624300); assay type: functional
[26] = molecular target: T3, Histone-lysine N-methyltransferase NSD2 (Homo sapiens, UniProt O96028); assay type: biochemical
T3 sequence (O96028 whole entry): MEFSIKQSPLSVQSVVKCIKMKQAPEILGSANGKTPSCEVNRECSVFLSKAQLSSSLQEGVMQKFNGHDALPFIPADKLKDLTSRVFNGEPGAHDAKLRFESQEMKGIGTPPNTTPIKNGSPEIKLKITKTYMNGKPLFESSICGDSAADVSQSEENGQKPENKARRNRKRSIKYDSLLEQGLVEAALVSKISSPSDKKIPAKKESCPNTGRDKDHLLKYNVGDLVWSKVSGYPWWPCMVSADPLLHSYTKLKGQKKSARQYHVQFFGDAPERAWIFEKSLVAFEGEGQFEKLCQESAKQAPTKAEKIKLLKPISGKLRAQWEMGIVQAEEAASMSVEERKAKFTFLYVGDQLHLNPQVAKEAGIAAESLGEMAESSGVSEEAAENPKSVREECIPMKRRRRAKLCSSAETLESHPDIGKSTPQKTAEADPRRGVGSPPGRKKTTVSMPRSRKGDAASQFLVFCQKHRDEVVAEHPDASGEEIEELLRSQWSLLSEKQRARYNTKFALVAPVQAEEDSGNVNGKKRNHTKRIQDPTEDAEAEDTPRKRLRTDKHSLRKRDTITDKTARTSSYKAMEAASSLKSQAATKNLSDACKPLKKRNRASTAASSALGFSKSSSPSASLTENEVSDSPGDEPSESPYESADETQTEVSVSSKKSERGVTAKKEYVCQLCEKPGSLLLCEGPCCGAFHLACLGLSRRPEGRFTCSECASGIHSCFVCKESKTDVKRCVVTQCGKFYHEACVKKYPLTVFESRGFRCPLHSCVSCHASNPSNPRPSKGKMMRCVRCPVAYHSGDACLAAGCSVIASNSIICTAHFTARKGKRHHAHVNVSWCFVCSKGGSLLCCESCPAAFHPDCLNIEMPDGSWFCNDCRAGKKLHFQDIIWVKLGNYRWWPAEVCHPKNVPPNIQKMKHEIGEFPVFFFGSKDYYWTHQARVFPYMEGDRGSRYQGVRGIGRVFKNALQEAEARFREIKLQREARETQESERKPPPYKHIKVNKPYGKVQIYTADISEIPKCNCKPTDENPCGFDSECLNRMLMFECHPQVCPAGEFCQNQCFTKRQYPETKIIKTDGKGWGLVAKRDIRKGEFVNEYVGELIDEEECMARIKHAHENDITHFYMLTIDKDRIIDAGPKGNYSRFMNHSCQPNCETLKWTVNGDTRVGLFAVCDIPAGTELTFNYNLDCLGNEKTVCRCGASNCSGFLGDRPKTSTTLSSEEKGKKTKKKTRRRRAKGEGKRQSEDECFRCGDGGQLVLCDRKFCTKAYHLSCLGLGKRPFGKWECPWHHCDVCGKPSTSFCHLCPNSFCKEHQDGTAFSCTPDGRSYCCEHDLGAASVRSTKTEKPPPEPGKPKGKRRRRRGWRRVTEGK

[27] = NIH:OVCAR-3 ovarian cancer cell cytotoxicity, dose response, PAX8 inhibitor project, plate reader, dry powder samples (AID 743044); assay type: functional, cell-based
[28] = IGROV1 ovarian cancer cell cytotoxicity, dose response, PAX8 inhibitor project, plate reader, dry powder samples (AID 743043); assay type: functional, cell-based; details: IGROV-1
[29] = cytotoxicity in OVCAR8 ovarian cancer cells, dose response, PAX8 project, cell-based, plate reader, dry powder samples (AID 743197); assay type: functional; details: OVCAR-8

Chain of Beta-galactosidase (Q8VNN2 whole entry): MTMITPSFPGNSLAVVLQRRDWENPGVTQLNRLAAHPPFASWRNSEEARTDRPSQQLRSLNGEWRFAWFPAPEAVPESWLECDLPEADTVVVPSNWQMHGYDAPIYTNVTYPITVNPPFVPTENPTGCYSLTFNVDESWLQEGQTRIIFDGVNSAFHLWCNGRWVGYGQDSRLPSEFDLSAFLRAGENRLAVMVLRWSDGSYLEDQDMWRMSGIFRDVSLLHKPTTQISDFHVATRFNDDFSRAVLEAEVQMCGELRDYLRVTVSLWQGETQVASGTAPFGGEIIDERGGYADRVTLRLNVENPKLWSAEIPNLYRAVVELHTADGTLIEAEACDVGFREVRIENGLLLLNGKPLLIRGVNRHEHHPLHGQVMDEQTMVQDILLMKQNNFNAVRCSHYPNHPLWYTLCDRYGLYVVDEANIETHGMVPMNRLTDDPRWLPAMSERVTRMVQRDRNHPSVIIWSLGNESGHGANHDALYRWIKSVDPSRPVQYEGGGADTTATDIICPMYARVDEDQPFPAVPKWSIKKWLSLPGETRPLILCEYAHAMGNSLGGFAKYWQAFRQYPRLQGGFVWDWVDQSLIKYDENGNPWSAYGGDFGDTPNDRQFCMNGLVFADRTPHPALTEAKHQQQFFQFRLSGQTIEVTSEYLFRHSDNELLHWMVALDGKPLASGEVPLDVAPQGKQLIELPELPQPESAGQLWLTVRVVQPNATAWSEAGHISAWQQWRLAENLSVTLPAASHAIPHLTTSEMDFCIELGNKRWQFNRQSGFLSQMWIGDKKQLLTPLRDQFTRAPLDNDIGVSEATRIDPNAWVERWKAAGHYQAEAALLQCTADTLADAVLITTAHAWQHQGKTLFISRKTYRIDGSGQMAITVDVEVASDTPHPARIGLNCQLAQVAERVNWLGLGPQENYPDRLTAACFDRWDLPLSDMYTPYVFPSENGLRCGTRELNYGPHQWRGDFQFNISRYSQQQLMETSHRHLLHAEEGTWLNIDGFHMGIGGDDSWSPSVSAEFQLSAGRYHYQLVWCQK

Q: With O=C(COc1ccc(Cl)cc1)N1CCN(C/C=C/c2ccccc2)CC1 as the compound, how does the IC50 [1] read?
A: > 80 µM (inactive)

Q: Which results are given for COc1ccccc1NC(=O)N1CCCCN2[C@H](CO)[C@H](c3ccc(C#CC4CCCC4)cc3)[C@H]2C1?
A: AC50 [2]: 12.6 µM (active); AC50 [3]: 21.9 µM (active)

Q: With CN1CCN(Cc2cc(Cl)c3cccnc3c2OC(=O)c2cccs2)CC1 as the compound, how does the AC50 [4] read?
A: 26 µM (active)

Q: For CCC1CN(S(=O)(=O)c2ccc3c(c2)NC(=O)CC(=O)N3)c2cc(Cl)ccc2O1 (centres undefined), which AC50 [5] is on record?
A: 28.5 µM (active)

Q: And the AC50 [6]?
A: 27.7 µM (active)

Q: With COc1cccc(-c2c[nH]c(C(O)c3cc(Cl)cc(Cl)c3)n2)c1 (centres undefined) as the compound, how does the IC50 [7] read?
A: 10.3 µM (inactive)

Q: And the IC50 [8]?
A: 83.3 µM (inactive)

Q: What about the IC50 [9] of the same compound?
A: 4.9 µM (active)

Q: For S=C(NCCc1ccccc1)N1Cc2cc(N3CCCCC3)ccc2-n2nncc2C1, which AC50 [10] is on record?
A: 5.34 µM (active)

Q: What about the AC50 [11] of the same compound?
A: 60.7 µM (active)

Q: And the AC50 [12]?
A: 9.8 µM (active)

Q: What about the AC50 [13] of the same compound?
A: 7.92 µM (active)

Q: What about the AC50 [14] of the same compound?
A: 9.73 µM (active)

Q: With CC1CCCN(CCOc2cccc(Oc3ccccc3)c2)C1 (centres undefined) as the compound, how does the AC50 [5] read?
A: 1.65 µM (active)

Q: What about the AC50 [6] of the same compound?
A: 2.31 µM (active)

Q: For Oc1nc2ccccc2n1C1CCN(C(CCc2ccccc2)c2nnnn2-c2ccc3c(c2)OCCO3)CC1 (centres undefined), which AC50 [15] is on record?
A: 10.8 µM (active)

Q: What about the AC50 [16] of the same compound?
A: 14.5 µM (active)

Q: And the AC50 [17]?
A: 9.66 µM (active)

Q: What about the AC50 [18] of the same compound?
A: 2.86 µM (active)

Q: And the AC50 [19]?
A: 7.65 µM (active)

Q: And the AC50 [20]?
A: 1.54 µM (active)

Q: And the AC50 [21]?
A: 16.5 µM (active)

Q: Which IC50 [22] does the source give for O/N=C/c1ccn(-c2ccc(Br)cc2)c1 here?
A: > 67.5 µM (inactive)

Q: And the IC50 [23]?
A: > 67.5 µM (inactive)

Q: Which results are given for CCOc1ccc(/C=N/NC(=O)NC23CC4CC(CC(C4)C2)C3)cc1O?
A: IC50 [24]: 148 µM (active); CC50 [25]: 100 µM (active)

Q: With CN(C)C(=O)c1ccc(-c2cc3onc(-c4ccccc4)c3c(=O)n2C)cc1 as the compound, how does the AC50 [4] read?
A: 26 µM (active)

Q: For Cc1ccccc1-c1nnc2n1N=C(c1ccc(O)c(O)c1)CS2, which AC50 [26] is on record?
A: > 20 µM (inactive)

Q: What about the IC50 [22] of the same compound?
A: > 67.6 µM (inactive)

Q: What about the IC50 [23] of the same compound?
A: > 67.6 µM (inactive)

Q: Which IC50 [7] does the source give for CCN1C(=O)C(CC(=O)Nc2ccc(F)cc2)N(CCc2ccc(OC)cc2)C1=S (centres undefined) here?
A: 13.2 µM (inactive)

Q: And the IC50 [8]?
A: 83.3 µM (inactive)

Q: And the IC50 [9]?
A: 10.5 µM (inactive)

Q: With O=C(c1ccc(F)cc1)N1CC(=O)N2[C@@H](CO)[C@@H](c3ccc(C#Cc4ccc(F)cc4)cc3)[C@@H]2C1 as the compound, how does the AC50 [27] read?
A: 7.81 µM (active)

Q: What about the AC50 [28] of the same compound?
A: 23 µM (active)

Q: What about the AC50 [15] of the same compound?
A: 2.16 µM (active)

Q: And the AC50 [29]?
A: > 70 µM (inactive)

Q: And the AC50 [20]?
A: 9.4 µM (active)
